System: venous blood from rhesus monkeys
Experiment: Hemolytic activity in vitro (standard hemolysis test)
Assay type: cell-based
Details: for Hemolysis (%): fresh heparinized rhesus monkey blood, 37° C., 3 hours, absorption at 540 nm, % of maximum inducible hemolysis (distilled water = 100%), dilutions 1600-3.125 mg/l, concentration behind the value not stated; for hemolysis in the standard hemolysis test (in words): rhesus monkey blood
Protocol: 2) Freshly removed venous blood from rhesus monkeys is used to measure the hemolytic activity. The blood is collected in heparinized tubes and 200 μl aliquots are distributed over 12 polyethylene tubes. 200 μl of distilled water are added to one aliquot, which serves as 100% standard, and another is mixed with 200 μl of physiological saline (0.9% NaCl) (0% standard). 200 μl portions of substance dilutions in physiological saline containing 1600, 800, 400, 200, 100, 50, 25, 12.5, 6.25 and 3.125 mg/l are distributed over the other tubes. All the tubes are cautiously swirled and incubated at 37° C. for 3 hours. Subsequently 100% standard is made up with 5 ml of distilled water, and the others are each made up with 5 ml of physiological saline and centrifuged at 700 g for 5 minutes.
The hemolysis is determined by measuring the absorption of the supernatant in a spectrophotometer at a wavelength of 540 nm. The absorption of the standard with complete hemolysis (distilled water) is set equal to 100%. The absorptions of the test product dilutions and of the 0% standard are measured and reported as a percentage of the maximum inducible hemolysis.

Structure (SMILES) | Hemolysis (%) | hemolysis in the standard hemolysis test (in words)
CCCCCCCCCCCCCC(=O)NC(CC(=O)O)C(=O)NC1C(=O)N2CCCCC2C(=O)NC(C(C)C(=O)O)C(=O)NC(CC(=O)O)C(=O)NCC(=O)NC(CC(=O)O)C(=O)NCC(=O)NC(C(C)N)C(=O)NC(C(C)C)C(=O)N2CCCC2C(=O)NC1C (centres unmarked) [Example 8] | 19.3% | 
CCCCCCCCCCCCCCC(=O)NC(CC(=O)O)C(=O)NC1C(=O)N2CCCCC2C(=O)NC(C(C)C(=O)O)C(=O)NC(CC(=O)O)C(=O)NCC(=O)NC(CC(=O)O)C(=O)NCC(=O)NC(C(C)N)C(=O)NC(C(C)C)C(=O)N2CCCC2C(=O)NC1C (centres unmarked) [Example 9] | 22.8% | 
CC(C)C1NC(=O)C(C(C)N)NC(=O)CNC(=O)C(CC(=O)O)NC(=O)CNC(=O)C(CC(=O)O)NC(=O)C(C(C)C(=O)O)NC(=O)C2CCCCN2C(=O)C(NC(=O)C(CC(=O)O)NC(=O)c2ccc(CCc3ccc(CCc4ccccc4)cc3)cc2)C(C)NC(=O)C2CCCN2C1=O (centres unmarked) [Example 56] | 0.4% | virtually no evidence of hemolysis
CCCCCCCc1ccc(C(=O)NC(CC(=O)O)C(=O)NC2C(=O)N3CCCCC3C(=O)NC(C(C)C(=O)O)C(=O)NC(CC(=O)O)C(=O)NCC(=O)NC(CC(=O)O)C(=O)NCC(=O)NC(C(C)N)C(=O)NC(C(C)C)C(=O)N3CCCC3C(=O)NC2C)cc1 (centres unmarked) [Example 49] | 0.0% | 
CCCCCCCCCCCC(=O)NC(CC(=O)O)C(=O)NC1C(=O)N2CCCCC2C(=O)NC(C(C)C(=O)O)C(=O)NC(CC(=O)O)C(=O)NCC(=O)NC(CC(=O)O)C(=O)NCC(=O)NC(C(C)N)C(=O)NC(C(C)C)C(=O)N2CCCC2C(=O)NC1C (centres unmarked) [Example 7] | 25.7% | 
CCCCCCCCCCC(=O)NC(CC(=O)O)C(=O)NC1C(=O)N2CCCCC2C(=O)NC(C(C)C(=O)O)C(=O)NC(CC(=O)O)C(=O)NCC(=O)NC(CC(=O)O)C(=O)NCC(=O)NC(C(C)N)C(=O)NC(C(C)C)C(=O)N2CCCC2C(=O)NC1C (centres unmarked) [Example 6] | 16.5% | 
CC(C)CCCCCCCCCCC(=O)NC(CC(=O)O)C(=O)NC1C(=O)N2CCCCC2C(=O)NC(C(C)C(=O)O)C(=O)NC(CC(=O)O)C(=O)NCC(=O)NC(CC(=O)O)C(=O)NCC(=O)NC(C(C)N)C(=O)NC(C(C)C)C(=O)N2CCCC2C(=O)NC1C (centres unmarked) [Example 14] | 22.9% | 
CC(C)C1NC(=O)C(C(C)N)NC(=O)CNC(=O)C(CC(=O)O)NC(=O)CNC(=O)C(CC(=O)O)NC(=O)C(C(C)C(=O)O)NC(=O)C2CCCCN2C(=O)C(NC(=O)C(CC(=O)O)NC(=O)c2ccc(CCc3ccc(-c4ccccc4)cc3)cc2)C(C)NC(=O)C2CCCN2C1=O (centres unmarked) [Example 55] | 0.5% | virtually no evidence of hemolysis
CCCCCCCCCCCCC(=O)NC(CC(=O)O)C(=O)NC1C(=O)N2CCCCC2C(=O)NC(C(C)C(=O)O)C(=O)NC(CC(=O)O)C(=O)NCC(=O)NC(CC(=O)O)C(=O)NCC(=O)NC(C(C)N)C(=O)NC(C(C)C)C(=O)N2CCCC2C(=O)NC1C (centres unmarked) [Example 1, Tridecanoyl Derivative of A 1437 Cyclic Peptide] | 19.6% | 

Source: patent publication US5629288A, “Lipopeptide derivatives, a process for their preparation and their use” (Hoechst Aktiengesellschaft, priority 1994, dated 1997)
